# Assay results taken from patent US11236083B2, “Compounds and pharmaceutical compositions for modulating SGK activity, and methods thereof” (NEW ERA PHARMA, INC., priority 2016, dated 2022).
# Like-named read-outs stand apart in the source and are kept apart here.
# What was measured:
# Sgk1 = molecular target: T1, Sgk1 (Homo sapiens, UniProt O00141); test: Enzyme based assay for SGK1 (biotinylated Akt Substrates-2 peptide, Eu3+ Cryptate/XL665 detection); format: biochemical
# T1 sequence (O00141 1-431): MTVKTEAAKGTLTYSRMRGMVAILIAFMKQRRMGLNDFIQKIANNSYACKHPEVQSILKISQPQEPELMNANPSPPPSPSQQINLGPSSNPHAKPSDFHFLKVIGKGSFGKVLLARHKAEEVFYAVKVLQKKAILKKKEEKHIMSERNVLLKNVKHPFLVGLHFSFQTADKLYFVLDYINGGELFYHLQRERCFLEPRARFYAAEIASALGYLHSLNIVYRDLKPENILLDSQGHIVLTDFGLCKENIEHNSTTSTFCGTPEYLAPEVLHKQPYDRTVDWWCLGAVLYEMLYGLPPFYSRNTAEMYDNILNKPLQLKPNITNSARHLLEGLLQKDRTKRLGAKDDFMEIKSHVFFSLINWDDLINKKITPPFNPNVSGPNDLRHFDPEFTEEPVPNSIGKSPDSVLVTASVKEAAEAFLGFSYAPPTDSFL
# Description: (§1) 1. Enzyme Based Assays for SGK1, SGK2, SGK3, and Akt1
# (§2) The kinase enzymatic reaction is carried out with a biotinylated Akt Substrates-2 peptide substrate. The phosphorylated substrate is then detected using a specific anti-phospho peptide antibody which is coupled with Eu^3+ Cryptate and XL665 conjugated with streptavidin.
# (§3) Exemplary Assay Conditions
# (§4) • Enzyme: ˜0.1 nM • Substrate: 0.2 μM • ATP: 50 μM and 1 mM • Mg^2+: 10 mM • Reaction time: 60 min with 50 μM ATP and 30 min with 1 mM ATP • SA-XL to Biotin: 1:10
# (§5) Detailed Steps • 1. prepare the enzyme and substrate solution with the buffer from Cisbio • 2. add the enzyme and substrate solution to the diluted compound plate • 3. transfer 5 μL of compound, enzyme, and substrate mixture to an 384-well assay plate • 4. add 5 μL ATP (with Mg^2+) solution to initiate the reaction • 5. after certain time, add 10 μL of stop solution containing SA-XL and specific antibody • 6. read the plate after 2 h incubation at rt • 7. process the data using prizm software (Exemplary results are shown in FIG. 1.) 2. PK Studies Protocol
# Sgk3 = molecular target: T2, Sgk3 (Homo sapiens, UniProt Q96BR1); test: Enzyme based assay for SGK3; format: biochemical
# T2 sequence (Q96BR1 1-496): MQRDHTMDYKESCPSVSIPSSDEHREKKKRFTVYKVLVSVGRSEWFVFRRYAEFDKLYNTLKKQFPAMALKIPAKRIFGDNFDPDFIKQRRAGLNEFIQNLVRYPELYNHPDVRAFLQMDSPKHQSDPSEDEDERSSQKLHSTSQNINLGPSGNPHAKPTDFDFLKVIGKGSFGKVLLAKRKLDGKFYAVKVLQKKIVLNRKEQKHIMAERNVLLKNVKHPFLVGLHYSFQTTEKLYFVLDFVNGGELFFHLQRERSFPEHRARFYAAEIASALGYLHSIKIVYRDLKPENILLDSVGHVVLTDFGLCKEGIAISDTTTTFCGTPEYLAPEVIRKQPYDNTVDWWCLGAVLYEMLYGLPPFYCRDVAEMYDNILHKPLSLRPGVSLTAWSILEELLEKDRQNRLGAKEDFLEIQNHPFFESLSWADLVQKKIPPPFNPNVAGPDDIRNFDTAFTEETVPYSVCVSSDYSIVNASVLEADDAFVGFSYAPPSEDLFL
# Description: as §1, §2, §3, §4, §5
# Sgk2 = molecular target: T3, Sgk2 (Homo sapiens, UniProt Q9HBY8); test: Enzyme based assay for SGK2 (biotinylated Akt Substrates-2 peptide, Eu3+ Cryptate/XL665 detection); format: biochemical
# T3 sequence (Q9HBY8 1-367): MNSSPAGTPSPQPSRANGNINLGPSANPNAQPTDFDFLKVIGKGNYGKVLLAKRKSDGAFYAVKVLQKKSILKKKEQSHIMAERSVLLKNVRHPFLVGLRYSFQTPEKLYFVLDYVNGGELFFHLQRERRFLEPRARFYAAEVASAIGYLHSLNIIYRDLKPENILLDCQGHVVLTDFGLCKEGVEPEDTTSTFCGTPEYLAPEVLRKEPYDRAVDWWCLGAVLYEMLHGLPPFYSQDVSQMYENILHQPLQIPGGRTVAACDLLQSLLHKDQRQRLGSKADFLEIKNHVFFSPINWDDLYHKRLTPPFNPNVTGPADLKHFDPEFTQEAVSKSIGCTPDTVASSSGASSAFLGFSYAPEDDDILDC
# Description: as §1, §2, §3, §4, §5
# hERG channels = molecular target: T4, hERG channels (Homo sapiens, UniProt Q12809); test: Qpatch hERG assay (automated patch clamp, whole-cell tail current); format: cell-based; conditions: CHO cell line stably expressing hERG channels; highest test concentration 30 μM
# T4 construct: expressed in transfected cells
# Description: • Assay platform & method: Automated patch clamp (Qpatch-48) • Cell source: CHO cell line stably expressing hERG channels • Measured parameter: Whole-cell tail current of hERG channels • Test concentration: 6 concentrations (30, 10, 3, 1, 0.3, 0.1 μM)
# Example: Qpatch hERG Assay
# HeLa = HeLa cell testing (Table 2); format: cell-based; conditions: Homo sapiens; HeLa cells
# 293T_O = 293T_O cell testing (Table 2); format: cell-based; conditions: 293T_O cells
# 293T = 293T cell testing (Table 2); format: cell-based; conditions: Homo sapiens, HEK-293T; 293T cells
# [1] = 50 μM ATP, read-out: Sgk1 (50 μM ATP)
# [2] = 1 mM ATP, read-out: Sgk1 (1 mM ATP)
# [3] = 50 μM ATP, read-out: Sgk2 (50 μM ATP)
# [4] = 1 mM ATP, read-out: Sgk2 (1 mM ATP)
# T4 sequence (Q12809 whole entry): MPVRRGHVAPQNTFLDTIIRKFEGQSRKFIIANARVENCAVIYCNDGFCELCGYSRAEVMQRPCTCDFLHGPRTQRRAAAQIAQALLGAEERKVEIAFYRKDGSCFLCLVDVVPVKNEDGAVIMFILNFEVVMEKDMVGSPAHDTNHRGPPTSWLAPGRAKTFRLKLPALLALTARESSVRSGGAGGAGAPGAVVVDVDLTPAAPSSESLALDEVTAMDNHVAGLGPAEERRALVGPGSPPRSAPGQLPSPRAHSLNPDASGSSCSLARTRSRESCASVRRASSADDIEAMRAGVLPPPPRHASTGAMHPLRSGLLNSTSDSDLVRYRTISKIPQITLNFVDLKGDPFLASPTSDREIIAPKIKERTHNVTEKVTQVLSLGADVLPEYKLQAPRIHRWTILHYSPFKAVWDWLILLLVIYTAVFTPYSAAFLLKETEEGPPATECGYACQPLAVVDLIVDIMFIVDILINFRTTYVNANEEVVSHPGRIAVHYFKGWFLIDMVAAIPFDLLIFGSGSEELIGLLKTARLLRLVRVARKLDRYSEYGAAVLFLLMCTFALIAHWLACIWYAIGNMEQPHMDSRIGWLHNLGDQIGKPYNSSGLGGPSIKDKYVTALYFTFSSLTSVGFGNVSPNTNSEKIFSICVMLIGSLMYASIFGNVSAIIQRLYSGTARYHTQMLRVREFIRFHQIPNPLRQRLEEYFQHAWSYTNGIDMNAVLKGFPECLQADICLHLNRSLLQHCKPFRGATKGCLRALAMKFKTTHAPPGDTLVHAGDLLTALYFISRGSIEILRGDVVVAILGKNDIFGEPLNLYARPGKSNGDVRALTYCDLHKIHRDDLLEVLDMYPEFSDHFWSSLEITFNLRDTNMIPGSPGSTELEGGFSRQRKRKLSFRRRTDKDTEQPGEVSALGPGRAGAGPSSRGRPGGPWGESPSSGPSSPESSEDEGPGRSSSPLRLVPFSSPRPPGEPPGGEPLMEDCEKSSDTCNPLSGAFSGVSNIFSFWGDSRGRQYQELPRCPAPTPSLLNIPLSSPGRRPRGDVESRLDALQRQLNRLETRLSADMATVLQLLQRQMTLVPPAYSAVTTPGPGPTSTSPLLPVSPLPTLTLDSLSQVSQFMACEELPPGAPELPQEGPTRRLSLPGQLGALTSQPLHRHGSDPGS
SMILES,IC50 (Sgk1; [1]) [nM],IC50 (Sgk1; [2]) [nM],IC50 (Sgk3) [nM],IC50 (Sgk2; [3]) [nM],IC50 (Sgk2; [4]) [nM],IC50 (HeLa) [nM],IC50 (hERG channels) [nM],IC50 (293T_O) [nM],IC50 (293T) [nM]
"COc1ccc(F)c(S(=O)(=O)Nc2ccc(-c3ccc4c(N)n[nH]c4n3)cc2)c1 [J, N-(4-(3-amino-1H-pyrazolo[3,4-b]pyridin-6-yl)-phenyl)-2-fluoro-5-methoxybenzenesulfonamide]",,,,,,,> 30000,,
Nc1n[nH]c2nc(-c3ccc(NS(=O)(=O)c4cc(Cl)ccc4F)cc3)ccc12,238,> 2000,,21.8,569,20100,,,
O=S(=O)(Nc1ccc(-c2ccc3cn[nH]c3n2)cc1)c1cc(Cl)ccc1F,97.9,77,,5.9,169,2170,,,
COc1ccc(F)c(S(=O)(=O)Nc2ccc(-c3ccc4cn[nH]c4n3)cc2)c1,5.2,150,,1.8,66,> 50000,,,
COc1ccc(F)c(S(=O)(=O)Nc2ccc(-c3cc4[nH]nc(N)c4cn3)cc2)c1,,> 200,,5.5,54.1,68400,,> 100000,94400
COc1ccc(F)c(S(=O)(=O)Nc2ccc(-c3ccc4c(N)n[nH]c4c3)cc2)c1,10.9,35.8,,6.1,16,13700,,47100,56100
COc1ccc(F)c(S(=O)(=O)Nc2ccc(-c3cc4[nH]ncc4c(OCC4CNCCO4)n3)cc2)c1 (stereo not drawn) [drawing 105],1.3,13.4,100,1.6,10,,,,

# Further compounds by falling IC50 (Sgk1; [2]), results first:
IC50 (Sgk1; [1]) [nM],IC50 (Sgk1; [2]) [nM],IC50 (Sgk3) [nM],IC50 (Sgk2; [3]) [nM],IC50 (Sgk2; [4]) [nM],IC50 (HeLa) [nM],SMILES,IC50 (hERG channels) [nM],IC50 (293T_O) [nM],IC50 (293T) [nM]
1.9,12.4,150,1.7,6.6,,COc1ccc(F)c(S(=O)(=O)Nc2ccc(-c3cc(NCC4CNCCO4)c4cn[nH]c4c3)cc2)c1 (stereo not drawn),,,
10.6,8.5,50,3.1,5.3,,COc1ccc(F)c(S(=O)(=O)Nc2ccc(-c3cc4[nH]nc(N)c4c(C)n3)cc2)c1 [drawing 110],,,
2.5,6.9,,2,15.8,11700,COc1ccc(Cl)c(S(=O)(=O)Nc2ccc(-c3cc4[nH]ncc4c(OCC4CNCCO4)n3)cc2)c1 (stereo not drawn),,35100,20400
2.3,6.6,,3.4,4.1,15600,COc1ccc(F)c(S(=O)(=O)Nc2ccc(-c3cc4[nH]ncc4c(SCC4CNCCO4)n3)cc2)c1 (stereo not drawn),,24500,17900
2.9,6.5,70,2,6.5,21400,COc1ccc(F)c(S(=O)(=O)Nc2ccc(-c3ccc4c(N)n[nH]c4n3)cc2)c1 [drawing 140],,,
11.8,2,130,12.3,29.9,,CCOc1cc(-c2ccc(NS(=O)(=O)c3cc(OC)ccc3F)cc2)cc2[nH]nc(N)c12,,,
